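Assay format: 96-well plates, 48-hour exposure. Here, GI50 denotes the concentration required for 50% inhibition of growth. TGI marks complete inhibition of growth.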
Tests used:
Test in all cases: growth of human tumour cells (NCI), 48 h
CCRF-CEM leukemia = tested on: CCRF-CEM leukemia
HCT-116 colon = tested on: HCT-116 colon
KM12 colon = tested on: KM12 colon
LOX IMVI melanoma = tested on: LOX IMVI melanoma
OVCAR-8 ovarian = tested on: OVCAR-8 ovarian
SK-MEL-28 melanoma = tested on: SK-MEL-28 melanoma
SK-MEL-5 melanoma = tested on: SK-MEL-5 melanoma
SR leukemia = tested on: SR leukemia
TK-10 renal = tested on: TK-10 renal
UACC-62 melanoma = tested on: UACC-62 melanoma

## Clc1ccc2c(Cl)ncnc2c1
CCRF-CEM leukemia
  TGI: > 100 µM
HCT-116 colon
  TGI: > 100 µM
KM12 colon
  TGI: > 100 µM
LOX IMVI melanoma
  TGI: > 100 µM
OVCAR-8 ovarian
  TGI: > 100 µM
SK-MEL-28 melanoma
  TGI: > 100 µM
SK-MEL-5 melanoma
  TGI: > 100 µM
SR leukemia
  TGI: > 100 µM
TK-10 renal
  TGI: > 100 µM
UACC-62 melanoma
  TGI: > 100 µM

## Brc1ccc2c(c1)C1(c3cc(Br)ccc3-2)c2cc(Br)ccc2-c2ccc(Br)cc21
CCRF-CEM leukemia
  TGI: > 100 µM
HCT-116 colon
  TGI: > 100 µM
KM12 colon
  TGI: > 100 µM
LOX IMVI melanoma
  TGI: > 100 µM
OVCAR-8 ovarian
  TGI: > 100 µM
SK-MEL-28 melanoma
  TGI: > 100 µM
SR leukemia
  TGI: > 100 µM
TK-10 renal
  TGI: > 100 µM
UACC-62 melanoma
  TGI: > 100 µM

## COc1ccc2cccc(C(=N)c3ccc(C)c4c3CCC4)c2c1
CCRF-CEM leukemia
  TGI: 26.6 µM
HCT-116 colon
  TGI: 15.9 µM
KM12 colon
  TGI: 22.9 µM
LOX IMVI melanoma
  TGI: 25.5 µM
OVCAR-8 ovarian
  TGI: 24 µM
SK-MEL-28 melanoma
  TGI: 26.9 µM
SK-MEL-5 melanoma
  TGI: 14.8 µM
SR leukemia
  TGI: 9.03 µM
TK-10 renal
  TGI: 24.2 µM
UACC-62 melanoma
  TGI: 15.8 µM

## COc1ccc([Se]c2ccc(OC)cc2OC)c(OC)c1
CCRF-CEM leukemia
  TGI: > 100 µM
HCT-116 colon
  TGI: 46.5 µM
KM12 colon
  TGI: > 100 µM
LOX IMVI melanoma
  TGI: > 100 µM
OVCAR-8 ovarian
  TGI: > 100 µM
SK-MEL-28 melanoma
  TGI: 77.1 µM
SK-MEL-5 melanoma
  TGI: 93.4 µM
SR leukemia
  TGI: 45.7 µM
TK-10 renal
  TGI: > 100 µM
UACC-62 melanoma
  TGI: > 100 µM

## CCOP(=O)(OCC)/C(C#N)=C\c1cccc2ccccc12
CCRF-CEM leukemia
  TGI: 97.7 µM
HCT-116 colon
  TGI: > 100 µM
KM12 colon
  TGI: > 100 µM
LOX IMVI melanoma
  TGI: > 59.4 µM
OVCAR-8 ovarian
  TGI: > 100 µM
SK-MEL-28 melanoma
  TGI: > 100 µM
SK-MEL-5 melanoma
  TGI: > 100 µM
SR leukemia
  TGI: > 75.1 µM
TK-10 renal
  TGI: > 100 µM
UACC-62 melanoma
  TGI: > 100 µM

## CN1C(=O)c2cc(Cl)nc3c(NC(=O)c4cccc(Cl)c4)c(Cl)c(NC(=O)c4cccc(Cl)c4)c1c23
CCRF-CEM leukemia
  GI50: 2.01 µM
  TGI: 5.59 µM
HCT-116 colon
  GI50: 1.31 µM
  TGI: 2.69 µM
KM12 colon
  GI50: 3.44 µM
  TGI: 15.5 µM
LOX IMVI melanoma
  GI50: 1.21 µM
  TGI: 2.58 µM
OVCAR-8 ovarian
  GI50: 2.48 µM
  TGI: 5.7 µM
SK-MEL-28 melanoma
  GI50: 1.78 µM
  TGI: 3.45 µM
SK-MEL-5 melanoma
  GI50: 2.09 µM
  TGI: 4.36 µM
SR leukemia
  GI50: 0.58 µM
  TGI: 2.95 µM
TK-10 renal
  GI50: 2.28 µM
  TGI: 5.84 µM
UACC-62 melanoma
  GI50: 1.92 µM
  TGI: 3.76 µM

## CC1CCC(O)C(C(O)CC2CC(=O)N(C)C(=O)C2)C1 (configuration not stated)
CCRF-CEM leukemia
  TGI: > 100 µM
HCT-116 colon
  TGI: > 100 µM
KM12 colon
  TGI: > 100 µM
LOX IMVI melanoma
  TGI: > 100 µM
OVCAR-8 ovarian
  TGI: > 100 µM
SK-MEL-28 melanoma
  TGI: > 100 µM
SR leukemia
  TGI: > 100 µM
TK-10 renal
  TGI: > 100 µM
UACC-62 melanoma
  TGI: > 100 µM

## COc1cc2ccn3c4cc(OC)c(OC)cc4cc3c2cc1OC
CCRF-CEM leukemia
  TGI: > 100 µM
HCT-116 colon
  TGI: > 100 µM
KM12 colon
  TGI: > 100 µM
OVCAR-8 ovarian
  TGI: > 100 µM
SK-MEL-28 melanoma
  TGI: > 100 µM
SR leukemia
  TGI: > 100 µM
TK-10 renal
  TGI: > 100 µM
UACC-62 melanoma
  TGI: > 100 µM

## CCOC(=O)c1[nH]c2c(c1C)-c1[nH]c(=O)c(S(=O)(=O)c3ccccc3)cc1SC2
CCRF-CEM leukemia
  GI50: 57.8 µM
  TGI: > 100 µM
HCT-116 colon
  GI50: 36.1 µM
  TGI: > 100 µM
KM12 colon
  GI50: 38.5 µM
  TGI: > 100 µM
OVCAR-8 ovarian
  GI50: 37.7 µM
  TGI: > 100 µM
SK-MEL-28 melanoma
  GI50: 70 µM
  TGI: > 100 µM
SK-MEL-5 melanoma
  GI50: 37.4 µM
  TGI: > 100 µM
SR leukemia
  GI50: 30.3 µM
  TGI: > 100 µM
TK-10 renal
  GI50: 42.6 µM
  TGI: > 100 µM
UACC-62 melanoma
  GI50: 46.7 µM
  TGI: > 100 µM

## COC(=O)c1cc(Nc2ccc(O)c3c2C(=O)c2c([N+](=O)[O-])ccc(O)c2C3=O)cc(C(=O)OC)c1
CCRF-CEM leukemia
  GI50: 4.27 µM
  TGI: > 100 µM
HCT-116 colon
  GI50: 4.17 µM
  TGI: > 100 µM
KM12 colon
  GI50: 34.5 µM
  TGI: > 100 µM
LOX IMVI melanoma
  GI50: 6.39 µM
  TGI: > 100 µM
OVCAR-8 ovarian
  GI50: 6.57 µM
  TGI: > 100 µM
SR leukemia
  GI50: 3.19 µM
  TGI: 42.6 µM
UACC-62 melanoma
  GI50: 4.63 µM
  TGI: > 100 µM

## COC(=O)C12CC(C3CC31)C1CC12 (configuration not stated)
CCRF-CEM leukemia
  TGI: > 100 µM
HCT-116 colon
  TGI: > 100 µM
LOX IMVI melanoma
  TGI: > 100 µM
OVCAR-8 ovarian
  TGI: > 100 µM
SK-MEL-28 melanoma
  TGI: > 100 µM
SK-MEL-5 melanoma
  TGI: > 100 µM
SR leukemia
  TGI: > 100 µM
TK-10 renal
  TGI: > 100 µM
UACC-62 melanoma
  TGI: > 100 µM

## Cc1ccc(NC(=O)CCC(=O)C2CC(=O)CC/C2=N\NC(=O)c2cc3ccccc3cc2O)cc1C (configuration not stated)
CCRF-CEM leukemia
  TGI: 58.3 µM
HCT-116 colon
  TGI: > 100 µM
KM12 colon
  TGI: > 100 µM
OVCAR-8 ovarian
  TGI: > 100 µM
SK-MEL-28 melanoma
  TGI: > 100 µM
SK-MEL-5 melanoma
  TGI: 29.6 µM
SR leukemia
  TGI: 97.4 µM
TK-10 renal
  TGI: > 100 µM
UACC-62 melanoma
  TGI: 33.9 µM

## Cc1nnc([S-])s1.[Au+].c1ccc([PH+](c2ccccc2)c2ccccc2)cc1
CCRF-CEM leukemia
  GI50: 2.04 µM
  TGI: 6.91 µM
KM12 colon
  GI50: 1.83 µM
  TGI: 3.41 µM
LOX IMVI melanoma
  GI50: 1.44 µM
  TGI: 2.82 µM
SK-MEL-28 melanoma
  GI50: 1.57 µM
  TGI: 2.99 µM
SK-MEL-5 melanoma
  GI50: 1.51 µM
  TGI: 2.97 µM
SR leukemia
  GI50: 1.67 µM
  TGI: > 100 µM
TK-10 renal
  GI50: 1.83 µM
  TGI: 3.32 µM
UACC-62 melanoma
  GI50: 1.28 µM
  TGI: 2.56 µM

## CC1(C)N=C(N)N=C(N)N1c1ccc(OCC(=O)Nc2cccc(S(=O)(=O)F)c2)c(Cl)c1
CCRF-CEM leukemia
  TGI: > 100 µM
HCT-116 colon
  TGI: > 100 µM
KM12 colon
  TGI: > 95 µM
LOX IMVI melanoma
  TGI: > 100 µM
OVCAR-8 ovarian
  TGI: > 100 µM
SK-MEL-28 melanoma
  TGI: > 100 µM
SK-MEL-5 melanoma
  TGI: > 91.9 µM
SR leukemia
  TGI: > 100 µM
TK-10 renal
  TGI: > 44.4 µM

## CC(CC(=O)O)(CC(=O)O)C(=O)O
HCT-116 colon
  TGI: > 100 µM
KM12 colon
  TGI: > 100 µM
LOX IMVI melanoma
  TGI: > 100 µM
OVCAR-8 ovarian
  TGI: > 100 µM
SK-MEL-28 melanoma
  TGI: > 100 µM
SK-MEL-5 melanoma
  TGI: > 100 µM
SR leukemia
  TGI: > 100 µM
TK-10 renal
  TGI: > 100 µM
UACC-62 melanoma
  TGI: > 100 µM

## CCCCCCCCCCCCCCCC[N+]1(CC)CCCC1
CCRF-CEM leukemia
  GI50: 0.379 µM
  TGI: 1.84 µM
HCT-116 colon
  GI50: 0.361 µM
  TGI: 1.4 µM
KM12 colon
  GI50: 0.73 µM
  TGI: 2.04 µM
LOX IMVI melanoma
  GI50: 0.162 µM
  TGI: 0.454 µM
SK-MEL-28 melanoma
  GI50: 1.18 µM
  TGI: 2.81 µM
SK-MEL-5 melanoma
  GI50: 0.4 µM
  TGI: 1.52 µM
SR leukemia
  GI50: 0.655 µM
  TGI: 4.42 µM
TK-10 renal
  GI50: 0.266 µM
  TGI: 1.21 µM

## Cc1cc(N(CCC#N)S(=O)(=O)c2ccccc2)ccc1C=O
CCRF-CEM leukemia
  TGI: > 100 µM
HCT-116 colon
  TGI: > 100 µM
KM12 colon
  TGI: > 100 µM
LOX IMVI melanoma
  TGI: > 100 µM
OVCAR-8 ovarian
  TGI: > 100 µM
SK-MEL-28 melanoma
  TGI: > 100 µM
SK-MEL-5 melanoma
  TGI: > 100 µM
SR leukemia
  TGI: > 100 µM
UACC-62 melanoma
  TGI: > 100 µM

## Cc1ccc(C2=Nc3c(N)ncnc3NC(c3cccc(Nc4ccnc5cc(C(F)(F)F)ccc45)c3)C2)cc1 (configuration not stated)
CCRF-CEM leukemia
  GI50: 3.85 µM
  TGI: > 100 µM
HCT-116 colon
  GI50: 2.86 µM
  TGI: 10.5 µM
KM12 colon
  GI50: 3.26 µM
  TGI: 13.3 µM
LOX IMVI melanoma
  GI50: 2.34 µM
  TGI: 6.13 µM
OVCAR-8 ovarian
  GI50: 5.89 µM
  TGI: 76.7 µM
SK-MEL-28 melanoma
  GI50: 3.81 µM
  TGI: 31.4 µM
SK-MEL-5 melanoma
  GI50: 2.05 µM
  TGI: 4.24 µM
TK-10 renal
  GI50: 6.89 µM
  TGI: 80.7 µM
UACC-62 melanoma
  GI50: 4.78 µM
  TGI: 26.8 µM

## O=C(CCCCCCCCC(=O)OCC1OC(n2cnc3c(=O)[nH]cnc32)C(O)C1O)OCC1OC(n2cnc3c(=O)[nH]cnc32)C(O)C1O (configuration not stated)
CCRF-CEM leukemia
  TGI: > 100 µM
HCT-116 colon
  TGI: > 100 µM
KM12 colon
  TGI: > 100 µM
LOX IMVI melanoma
  TGI: > 100 µM
OVCAR-8 ovarian
  TGI: > 100 µM
SK-MEL-28 melanoma
  TGI: > 100 µM
SK-MEL-5 melanoma
  TGI: > 100 µM
TK-10 renal
  TGI: > 100 µM
UACC-62 melanoma
  TGI: > 100 µM

From PubChem BioAssay (NCI)
